The subject of this test is CD2F1 mice, ip reticulum cell sarcoma, survival T/C. As to the kind of experiment: NCI In Vivo Anticancer Drug Screen. Data for tumor model Reticulum Cell Sarcoma (Kelley Mouse) (intraperitoneal) in CD2F1 (CDF1) mice. The following applies: endpoint: median survival time, higher = longer survival. On the procedure:
The antitumor activity of compounds was measured in mice bearing transplantable tumors. Survival or tumor size were measured and the results are expressed as the measurement made in the treated group (T) divided by the measurement made in the vehicle treated control group (C). The tumor model used in this assay is Reticulum Cell Sarcoma (Kelley Mouse) (intraperitoneal) in CD2F1 (CDF1) mice

[1] abbreviates: dose: 15.6 mg/kg/injection, schedule: Q01DX010 (ip), vehicle: saline.
[2] abbreviates: dose: 31.3 mg/kg/injection, schedule: Q01DX010 (ip), vehicle: saline.
Where [3] appears, read: dose: 62.5 mg/kg/injection, schedule: Q01DX010 (ip), vehicle: saline.
[4] abbreviates: dose: 125.0 mg/kg/injection, schedule: Q01DX010 (ip), vehicle: saline.
[5] abbreviates: dose: 250.0 mg/kg/injection, schedule: Q01DX010 (ip), vehicle: saline.
Setting [6] is: dose: 1.0 mg/kg/injection, schedule: Q01DX010 (ip), vehicle: saline.
[7] abbreviates: dose: 4.0 mg/kg/injection, schedule: Q01DX010 (ip), vehicle: saline.
Where [8] appears, read: dose: 100.0 mg/kg/injection, schedule: Q01DX010 (ip), vehicle: saline.
[9] abbreviates: dose: 5.0 mg/kg/injection, schedule: Q01DX010 (ip), vehicle: saline.
Setting [10] is: dose: 10.0 mg/kg/injection, schedule: Q01DX010 (ip), vehicle: saline.
The mark [11] stands for this setting: dose: 3.13 mg/kg/injection, schedule: Q01DX010 (ip), vehicle: saline.
Setting [12] is: dose: 6.25 mg/kg/injection, schedule: Q01DX010 (ip), vehicle: saline.
[13] abbreviates: dose: 12.5 mg/kg/injection, schedule: Q01DX010 (ip), vehicle: saline.
The mark [14] stands for this setting: dose: 25.0 mg/kg/injection, schedule: Q01DX010 (ip), vehicle: saline.
[15] abbreviates: dose: 500.0 mg/kg/injection, schedule: Q01DX010 (ip), vehicle: saline.
The mark [16] stands for this setting: dose: 50.0 mg/kg/injection, schedule: Q01DX010 (ip), vehicle: saline.
Setting [17] is: dose: 1.25 mg/kg/injection, schedule: Q01DX010 (ip), vehicle: saline.
The mark [18] stands for this setting: dose: 2.5 mg/kg/injection, schedule: Q01DX010 (ip), vehicle: saline.

Values joined by “and” are separate entries in the source; they are usually repeats but may differ in a detail not shown here. Identical values can stand only once. Toxic doses and inconclusive results are not listed.

As to `COc1ccc2c(c1OC)C(=O)O[C@@H]2[C@H]1c2c(cc3c(c2OC)OCO3)CCN1C`, the T/C reads like this: (dose: 7.8 mg/kg/injection, schedule: Q01DX010 (ip), vehicle: saline) 100 % of control; under setting [1], 100 % of control; under setting [2], 97 % of control and 102 % of control; under setting [3], 91 % of control and 97 % of control; under setting [4], 91 % of control; under setting [5], 91 % of control.

As to `Nc1nc2n[nH]nc2c(=O)[nH]1`, the T/C (dose: 200.0 mg/kg/injection, schedule: Q01DX010 (ip), vehicle: alkali diluted with saline) is 115 % of control and 86 % of control.

In the case of `Nc1nc(=S)c2ncn(C3OC(CO)C(O)C3O)c2[nH]1` (centres undefined), the T/C runs as follows: under setting [6], 178 % of control; (dose: 2.0 mg/kg/injection, schedule: Q01DX010 (ip), vehicle: saline) 182 % of control; under setting [7], 103 % of control.

In the case of `CC(CCC(C)OS(C)(=O)=O)OS(C)(=O)=O` (centres undefined), the T/C was 100 % of control under setting [7]; 103 % of control and 106 % of control (dose: 8.0 mg/kg/injection, schedule: Q01DX010 (ip), vehicle: saline); 100 % of control and 109 % of control (dose: 16.0 mg/kg/injection, schedule: Q01DX010 (ip), vehicle: saline); 109 % of control and 112 % of control (dose: 32.0 mg/kg/injection, schedule: Q01DX010 (ip), vehicle: saline).

With `Nc1c(Br)cc2c(c1Br)Cc1cc([N+](=O)[O-])ccc1-2`, the T/C under setting [1] is 100 % of control; the T/C under setting [2] was 100 % of control; the T/C under setting [3] was 88 % of control and 103 % of control; the T/C under setting [4] is 94 % of control and 100 % of control.

In the case of `Nc1nc(N)c2nc(CNc3ccc(C(=O)NC(CCC(=O)O)C(=O)O)cc3)cnc2n1` (centres undefined), the T/C (dose: 25.0 micrograms/kg/injection, schedule: Q01DX010 (ip), vehicle: other) is 105 % of control and 113 % of control; the T/C (dose: 50.0 micrograms/kg/injection, schedule: Q01DX010 (ip), vehicle: other) was 107 % of control and 121 % of control; the T/C (dose: 100.0 micrograms/kg/injection, schedule: Q01DX010 (ip), vehicle: other) is 110 % of control and 121 % of control; the T/C (dose: 200.0 micrograms/kg/injection, schedule: Q01DX010 (ip), vehicle: other) was 94 % of control and 113 % of control.

For `C1CN1c1nc(N2CC2)nc(N2CC2)n1`, the T/C by setting is: (dose: 0.13 mg/kg/injection, schedule: Q01DX010 (ip), vehicle: saline) 100 % of control; (dose: 0.25 mg/kg/injection, schedule: Q01DX010 (ip), vehicle: saline) 100 % of control and 103 % of control; under setting [6], 123 % of control.

Consider `Nc1ncnc2[nH]ncc12`, for which the T/C is 100 % of control and 107 % of control (dose: 1.5 mg/kg/injection, schedule: Q01DX010 (ip), vehicle: saline); 100 % of control and 110 % of control (dose: 3.0 mg/kg/injection, schedule: Q01DX010 (ip), vehicle: saline); 105 % of control and 110 % of control (dose: 6.0 mg/kg/injection, schedule: Q01DX010 (ip), vehicle: saline); 97 % of control and 100 % of control (dose: 12.0 mg/kg/injection, schedule: Q01DX010 (ip), vehicle: saline).

For `CCN(CC)CCNc1ccc(C)c2sc3ccccc3c(=O)c12`, the T/C is 106 % of control under setting [8]; 103 % of control and 106 % of control (dose: 200.0 mg/kg/injection, schedule: Q01DX010 (ip), vehicle: saline).

As for `CN(C)c1ccc(/C=C/c2ccnc3ccccc23)cc1`, the T/C is, setting by setting: under setting [9], 100 % of control; under setting [10], 100 % of control and 112 % of control; (dose: 20.0 mg/kg/injection, schedule: Q01DX010 (ip), vehicle: saline) 96 % of control and 100 % of control; (dose: 40.0 mg/kg/injection, schedule: Q01DX010 (ip), vehicle: saline) 96 % of control and 103 % of control.

For `N=[N+]=CC(=O)OCC(N)C(=O)O` (centres undefined), the T/C was 106 % of control under setting [11], 113 % of control under setting [12], 120 % of control under setting [13] and 116 % of control under setting [14].

For the compound `C[C@]12C=CC(=O)C=C1CC[C@@H]1[C@@H]2[C@@H](O)C[C@@]2(C)[C@H]1CC[C@]2(O)C(=O)CO`, the T/C was 97 % of control and 100 % of control (dose: 12.5 mg/kg/injection, schedule: Q01DX010 (sc), vehicle: steriod suspending solution); 94 % of control and 100 % of control (dose: 25.0 mg/kg/injection, schedule: Q01DX010 (sc), vehicle: steriod suspending solution); 94 % of control and 97 % of control (dose: 50.0 mg/kg/injection, schedule: Q01DX010 (sc), vehicle: steriod suspending solution); 94 % of control and 100 % of control (dose: 100.0 mg/kg/injection, schedule: Q01DX010 (sc), vehicle: steriod suspending solution).

Regarding `C[C@H]1C(=O)O[C@@H]2CCN3CC=C(COC(=O)[C@](C)(O)[C@@]1(C)O)[C@H]23`, the T/C was 103 % of control under setting [11], 100 % of control under setting [12], 103 % of control under setting [13] and 121 % of control under setting [14].

As for `CCCNc1ncnc2[nH]ncc12`, the T/C by setting is: under setting [11], 97 % of control and 100 % of control; under setting [12], 97 % of control and 100 % of control; under setting [13], 97 % of control and 105 % of control; under setting [14], 100 % of control and 102 % of control.

As to `O=c1cn[nH]c(=O)[nH]1`, the T/C under setting [3] is 92 % of control and 100 % of control; the T/C under setting [4] was 95 % of control and 100 % of control; the T/C under setting [5] was 97 % of control; the T/C under setting [15] is 90 % of control and 102 % of control.

On to `CS(=O)(=O)OCCCCOS(C)(=O)=O`, for which the T/C is, setting by setting: under setting [12], 94 % of control and 105 % of control; under setting [13], 97 % of control and 108 % of control; under setting [14], 100 % of control and 102 % of control; under setting [16], 100 % of control and 105 % of control.

With `COc1cc(-c2ccc(Nc3ccccc3C(=O)O)c(OC)c2)ccc1Nc1ccccc1C(=O)O`, the T/C runs as follows: under setting [16], 105 % of control; under setting [8], 100 % of control.

On to `CS(=O)(=O)OCCC(=O)N1CCN(C(=O)CCOS(C)(=O)=O)CC1`, for which the T/C is, setting by setting: under setting [13], 111 % of control and 114 % of control; under setting [16], 114 % of control; under setting [8], 114 % of control.

Consider `O=C(O)c1[nH]c(=O)[nH]c(=O)c1F`, for which the T/C was 91 % of control under setting [17]; 94 % of control under setting [18]; 97 % of control and 100 % of control under setting [9]; 94 % of control and 100 % of control under setting [10].

Take `N#CCSc1ncnc2nc[nH]c12`: the T/C (dose: 7.5 mg/kg/injection, schedule: Q01DX010 (ip), vehicle: saline) is 100 % of control; the T/C (dose: 15.0 mg/kg/injection, schedule: Q01DX010 (ip), vehicle: saline) is 103 % of control; the T/C (dose: 30.0 mg/kg/injection, schedule: Q01DX010 (ip), vehicle: saline) is 100 % of control and 103 % of control; the T/C (dose: 60.0 mg/kg/injection, schedule: Q01DX010 (ip), vehicle: saline) is 103 % of control and 106 % of control.

Turning to `N#[N+]c1cnc([O-])[nH]c1=O`, the T/C is, setting by setting: under setting [17], 100 % of control; under setting [18], 100 % of control and 112 % of control; under setting [9], 112 % of control and 118 % of control; under setting [10], 106 % of control.

For the compound `O=C(Nc1ccc(C2=NCCN2)cc1)c1ccc(C(=O)Nc2ccc(C3=NCCN3)cc2)c(Cl)c1`, the T/C was 111 % of control and 115 % of control (dose: 2.0 mg/kg/injection, schedule: Q01DX010 (ip), vehicle: other); 113 % of control (dose: 4.0 mg/kg/injection, schedule: Q01DX010 (ip), vehicle: other); 168 % of control (dose: 8.0 mg/kg/injection, schedule: Q01DX010 (ip), vehicle: other); 151 % of control and 197 % of control (dose: 16.0 mg/kg/injection, schedule: Q01DX010 (ip), vehicle: other); 95 % of control (dose: 32.0 mg/kg/injection, schedule: Q01DX010 (ip), vehicle: other).

Regarding `CCOC(N)=O`, the T/C under setting [4] is 102 % of control; the T/C under setting [5] was 97 % of control and 102 % of control; the T/C under setting [15] was 100 % of control and 102 % of control; the T/C (dose: 1000.0 mg/kg/injection, schedule: Q01DX010 (ip), vehicle: saline) is 88 % of control and 100 % of control.

Regarding `CN(C)c1nc(N(C)C)nc(N(C)C)n1`, the T/C was 100 % of control and 103 % of control (dose: 18.8 mg/kg/injection, schedule: Q01DX010 (ip), vehicle: saline); 93 % of control and 106 % of control (dose: 37.5 mg/kg/injection, schedule: Q01DX010 (ip), vehicle: saline); 100 % of control and 109 % of control (dose: 75.0 mg/kg/injection, schedule: Q01DX010 (ip), vehicle: saline); 100 % of control and 106 % of control (dose: 150.0 mg/kg/injection, schedule: Q01DX010 (ip), vehicle: saline).

Values taken from PubChem BioAssay AID340 (DTP/NCI, 2004).
